Measurements reported in publication PMC6934184, “Selective DNA-PKcs inhibition extends the therapeutic index of localized radiotherapy and chemotherapy” (The Journal of Clinical Investigation, 2019).

Biological target: T1, PDGFRB (PDGFR beta) (Homo sapiens, UniProt P09619)
T1 construct: purchased Thermo Fisher Scientific (Life Technologies) SelectScreen
Test: SelectScreen Z'LYTE
Type: biochemical
How it was run: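 SelectScreen broad panel; activity (Z'LYTE, Adapta) plus binding formats. ATP: Km app for CSF1R Z'LYTE; 10 for CAMK1 Adapta. Readout = % per kinase.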

T1 sequence (P09619 33-1106): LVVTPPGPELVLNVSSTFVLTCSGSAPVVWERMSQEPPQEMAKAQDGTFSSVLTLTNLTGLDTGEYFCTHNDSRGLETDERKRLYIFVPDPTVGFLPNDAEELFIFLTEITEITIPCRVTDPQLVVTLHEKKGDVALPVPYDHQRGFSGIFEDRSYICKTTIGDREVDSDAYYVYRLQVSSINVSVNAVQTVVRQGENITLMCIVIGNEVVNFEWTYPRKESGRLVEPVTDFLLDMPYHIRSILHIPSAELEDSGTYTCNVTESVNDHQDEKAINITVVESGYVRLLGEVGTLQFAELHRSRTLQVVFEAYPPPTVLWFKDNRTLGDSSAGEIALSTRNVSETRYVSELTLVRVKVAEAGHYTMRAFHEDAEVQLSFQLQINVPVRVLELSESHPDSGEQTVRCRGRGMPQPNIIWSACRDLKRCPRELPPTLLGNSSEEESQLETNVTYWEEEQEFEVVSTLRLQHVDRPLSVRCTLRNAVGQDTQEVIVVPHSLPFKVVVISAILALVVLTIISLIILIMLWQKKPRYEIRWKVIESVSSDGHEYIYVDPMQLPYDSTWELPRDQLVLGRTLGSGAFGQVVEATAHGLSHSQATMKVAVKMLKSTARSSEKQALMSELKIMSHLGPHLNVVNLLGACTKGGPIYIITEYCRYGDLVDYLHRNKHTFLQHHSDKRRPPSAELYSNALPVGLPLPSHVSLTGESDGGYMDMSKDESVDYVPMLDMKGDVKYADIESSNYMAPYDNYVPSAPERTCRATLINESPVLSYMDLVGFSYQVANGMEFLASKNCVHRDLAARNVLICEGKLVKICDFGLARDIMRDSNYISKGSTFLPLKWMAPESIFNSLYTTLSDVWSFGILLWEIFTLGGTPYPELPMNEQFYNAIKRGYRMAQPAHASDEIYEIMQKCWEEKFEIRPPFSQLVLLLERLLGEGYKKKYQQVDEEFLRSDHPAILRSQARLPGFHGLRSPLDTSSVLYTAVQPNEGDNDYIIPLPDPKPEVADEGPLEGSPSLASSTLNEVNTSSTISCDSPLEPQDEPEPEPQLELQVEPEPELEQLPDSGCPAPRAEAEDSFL

Structure (SMILES): CN(C(=O)CN1CCOCC1)c1ccc2sc3c(-c4cccc5c(=O)cc(N6CC7CCC(C6)O7)oc45)cccc3c2c1 [NU5455]
- inhibition at 1 µM: 11%
